Reference: patent US20250152609A1, “SALICYLIC ACID COMPOSITIONS AND USES THEREOF” (priority 2022, published 2025)
Values after ≈ are worked out from the molar mass of the structure shown. Like-named read-outs stand apart in the source and are kept apart here.

Legend:
[1] = tested on: E. coli CFT073 adhesion to human urinary bladder cells (T24); assay: In vitro adhesion test (ADH): adhesion of E. coli to human bladder cells, cfu plate count; type: cell-based; settings: for reduction of adhesion of E. coli CFT073 on urinary bladder cells: 1 h, adhesion <50% of control = significant, FIG. 1C
Protocol: In Vitro Adhesion Test (ADH)—Host-Pathogen-Interaction Assessed by In Vitro Adhesion to Human Cells Adhesion of E. coli to bladder epithelium was established in cell culture. Upon exposure to E. coli an epithelial cell detachment was observed, in a manner similar to in vivo exfoliation. The test was miniaturized by growing the epithelium cell cultures in 96-well plates instead of the classical 24-well plates.
The test samples were added prior to the start of the adhesion process. Bladder cells grown to confluence in 96-well plates were exposed to E. coli (50 μL of E. coli at 1.4*10^7 cfu/mL in each well) for 1 h. After 1 h, non-adhered E. coli were rinsed off and the adhered E. coli were detached and enumerated by plate counting colony-forming-units (cfu). Enumeration was automatized using a spiral plate count apparatus which further improved the test-variability.
The E. coli adhesion test was run in absence (given as 100% adhesion) and presence of different concentrations of the agents. […] Human cytotoxicity measurements of the mitochondrial activity (MTT) excluded side-effects of the agents.
Results are presented in FIG. 1C where relative adhesion (ADH) is expressed in percent (no inhibition control=100%; buffer was used instead of the treatments). All adhesion values<50% are defined as a significant inhibition.
Anti-adhesive effect is measured in vitro (standard method) using centrifuged extracts (Fu1) of Filipendula ulmaria (F) and Epilobium parviflorum (E) using human epithelial bladder cells (T24 ATCC® HTB-4™ Homo sapiens urinary bladder cell lines).

[2] = Analysis of salicylic acid and its metabolites in urines of treated mice (HPLC-MRM-MS); type: in vivo; settings: for share of ingested SA found in the urines in this form: Filipendula ulmaria extract with 1.3% SA, total 40 mg in 8 doses over 24 h, oral
Protocol: A: Comparison of RT from analytical standards of salicylic acid (SA) (1) and its metabolites […] (DHBA) (2) and salicyluric acid (SUA) (3) and peaks found in urine samples collected from the group treated with Filipendula ulmaria extract (Fil). Analysis was performed on a SunFire™ C18 ([…], 3.0 mm×150 mm) column (Waters). 5% MeCN (A) and MeCN (B) both containing 0.1% of formic acid were used as mobile phase. A gradient of 0 to 100% B in 20 min was applied at a flow rate of 0.8 mL/min. B: Concentration, amounts (in samples collected over a 3-hour-period) and cumulative amounts of salicylic acid (SA) (1) and its metabolites 2,3-dihydroxybenzoic acid (DHBA) (2) and salicyluric acid (SUA) (3) found in urine samples collected from groups treated with Filipendula ulmaria extract (F). Cumulative amounts are the cumulated amounts of the respective compounds in the urine over time up to the indicated timepoint. Numbers on x-axis indicate collection time. Analysis was performed by HPLC-MRM-MS using the chromatographic conditions described in A.
The urines collected from control groups as described in Example 3 were compared against urines collected from mice treated with different combinations of plant extracts. The urines were analyzed using HPLC-UV/MS on a SunFire C18 column column. 5% MeCN (A) and MeCN (B) both containing 0.1% of formic acid were used as mobile phase. A gradient of 0 to 100% B in 20 min was applied at a flow rate of 0.8 mL/min. MS scans were recorded in positive and negative ion modes (ESI+/−). Major additional peaks in the groups treated with a mixture of Filipendula ulmaria-Epilobium parviflorum were identified as salicylic acid (SA) (1), 2,3-dihydroxybenzoic acid (DHBA) (2), and salicyluric acid (SUA) (3). FIG. 3A compares the RT from analytical standards of salicylic acid (SA) (1) and its metabolites salicyluric acid (SUA) ([…]) and 2,3-dihydroxybenzoic acid (DHBA) (2), and peaks found in urine samples collected from groups treated with Filipendula extracts. The exact mass of the three molecules was confirmed using high-resolution mass spectrometry. Further, the three identified metabolites were quantified in the urine samples by MRM—with the following transitions (m z): 136.5→65.0, 136.5→92.9 (SA); 152.9→108.9, 152.9→80.9 (DHBA); 194.0→150.0, 194.0→92.9 (SUA) and pure analytical standards that were diluted in urine from negative controls for the calibration curve.
The amounts of SA, SUA et DHBA were quantified in the urine of mice after absorption of an extract of Filipendula ulmaria containing 1.3% of SA at a total dose of 40 mg divided in 8 equal doses over 24 h as described above (Example 3, in-vivo efficacy studies).

E. coli = assay: In vitro antibacterial assay (MIC), E. coli growth in solution in 96-well plates, plate counting; type: cell-based; settings: for MIC: Escherichia coli
Protocol: E. coli growth in solution was measured in 96-well plates. Absence and presence of different concentrations of the test agent during exponential growth determined the MIC (minimal inhibitory concentration) value. E. coli enumeration was by the plate-counting method (ufc) as described above.

E. coli CFT073 = assay: In vivo UTI mouse model: living E. coli in bladder homogenates (bladder adhesion); parameters: species or system mice
From the text: (§1) An in vivo test of UTI (urinary tract infection) was established and implemented for the identification of active plant extracts and compounds. […] which were age matched females were adapted to the clean, non-septic laboratory conditions. The experiment started with a 2 days nutrition enriched by glucose in order to facilitate the subsequent UTI infection. Each compound, or plant extract was then applied at various concentrations by 8 consecutive intestinal ingestions by gavage-devices over the duration of 24 h. Each ingestion comprised a volume of 100 μL solution. During these 24 h the mice were hold in metabolic cages. The urine was collected every 3 h to analyze diuresis effects. For the subsequent UTI infection*, the isolate E. coli CFT073 (commercially available at DSM, originating from human UTI) was applied trans-urethral into the bladder and incubated in vivo for a 3 h duration and free movements in normal cages. Mice were euthanized and living E. coli were enumerated in bladder homogenates (homogenization of 12 bladder for living bacteria counting (cfu)), and organ morphology were assessed by histology microscopy. *UTI Infection with 50 μL of E. coli (CFT073) containing […] inoculated in the bladder (in another experiment, the in vivo infection was run similarly, but with slightly less germs 3.3×10^6 or 5×10^6 germs per inoculation).
The in-vivo anti-adhesion effect of the various substances and extracts of the invention were tested in vivo using a mouse model as described above by giving orally 100 μL of test substance every 3 hours for 24 h prior to inoculating E. coli in the bladder 3 h before measuring E. coli in the bladder. At the end of each assay, mice are euthanized, and their bladder homogenized for E. coli measurements.

[3] = Diuretic effects: urine collected over 24 h in the mouse model; type: in vivo; settings: 68.8 μg/100 μL orally every 3 h; urine of 6 mice over 24 h
From the text: as §1, with “For the subsequent UTI infection*, the isolate E. coli CFT073 (commercially available at DSM, originating from human UTI) was applied trans-urethral into the bladder and incubated in vivo for a 3 h duration and free movements in normal cages.” left out
The urines were collected from control groups and from mice treated with different agents. […] Each value has been calculated from the total urine collected from 6 mice.

[4] = CHHeNCrL (so in the source); i.e. C3H/HeNCrl), mouse, in vivo
[5] = E. coli, 24 h exponential growth, pure substances and cranberry control
[6] = as given in the legend of FIG. 1F, read-out: prevention of growth of E. coli (MIC)

With O=C(O)c1cccc(O)c1O [2,3-Dihydroxybenzoic acid, 2,3-dihydroxybenzoic acid] the “reduction of adhesion of E. coli CFT073 on urinary bladder cells” value (“reduction of adhesion of E. coli CFT073” for short) ([1]; 2.5 mg/mL) was “an effect”, the “reduction of adhesion of E. coli CFT073” value ([1]; 5 mg/mL) was “an effect” and the cumulated amounts present in the urine [2, 4] was 68 µg. The “Observation of microbial culture” value (E. coli; 0.3125 mg/mL, 24 h) was “growth”, the “Observation of microbial culture” value (E. coli; 0.625 mg/mL, 24 h) was “growth *” and the “Observation of microbial culture” value (E. coli; 1.25 mg/mL, 24 h) was “no growth”. For the same compound, the “Observation of microbial culture” value (E. coli; 2.5 mg/mL, 24 h) was “no growth”, the “Observation of microbial culture” value (E. coli; 5 mg/mL, 24 h) was “no growth” and the “MIC (minimal inhibitory concentration)” value (E. coli; [5]) was “MIC at 1.25 mg/mL”. For the same compound, the “MIC (minimal inhibitory concentration)” value (E. coli; E. coli, 24 h exponential growth, pure substances and cranberry control, listed as 2) was 5000 µg/mL (≈ 32.4 mM) and the MIC (E. coli; [6]) was 2500 µg/mL (≈ 16.2 mM).
For O=C(O[C@H]1[C@@H]2OC(=O)c3cc(O)c(O)c(O)c3-c3c4cc(c(O)c3O)Oc3c(cc(O)c(O)c3O)C(=O)O[C@H]3C(O)O[C@@H]5COC(=O)c6cc(O)c(O)c(O)c6-c6c(cc(c(O)c6O)Oc6c(cc(O)c(O)c6O)C(=O)O[C@H]1C(O)O[C@@H]2COC4=O)C(=O)O[C@H]5[C@@H]3OC(=O)c1cc(O)c(O)c(O)c1)c1cc(O)c(O)c(O)c1 (stereo partly shown) [Oenothein B], the “identification of the compound and its metabolites by LC-MS in the collected urine samples” value ([2]; mouse, in vivo, po) was “not identified”, the “number of adhered bacteria E. coli lower than in the controls” value (E. coli CFT073; 0.065 mg/100 mL, inoculation 3.28×5×10^6 cfu) was 75.12% and the “Observation of microbial culture” value (E. coli; 0.65 mg/mL) was “growth”. The “Observation of microbial culture” value (E. coli; 1.3 mg/mL) was “no growth”, the “Observation of microbial culture” value (E. coli; 1.9 mg/mL) was “no growth” and the “Observation of microbial culture” value (E. coli; 2.6 mg/mL) was “no growth”. For the same compound, the “Observation of microbial culture” value (E. coli; 3.25 mg/mL) was “no growth”, the “MIC (minimal inhibitory concentration)” value (E. coli; [5]) was “MIC at 1.3 mg/mL” and the MIC (E. coli; 24 h, read-out: MIC (minimal inhibitory concentration)) was 1300 µg/mL (≈ 0.829 mM). For the same compound, the MIC (E. coli; read-out: prevention of growth of E. coli (MIC)) was 1300 µg/mL (≈ 0.829 mM).
With O=C(O)c1ccccc1O [Salicylic acid, salicylic acid] the “reduction of adhesion of E. coli CFT073” value ([1]; 1.25 mg/mL) was “adhesion reduction efficacy”, the “reduction of adhesion of E. coli CFT073” value ([1]; 2.5 mg/mL) was “adhesion reduction efficacy” and the “reduction of adhesion of E. coli CFT073” value ([1]; 5 mg/mL) was “adhesion reduction efficacy”. The “concentration necessary for inhibition of E. coli adhesion to human bladder epithelium” value ([1]; for 1 hour) was 2.5 mg/mL, the cumulated amounts present in the urine [2, 4] was 84 µg and the “share of ingested SA found in the urines in this form” value ([2]; mice) was 5.4%. The “inhibitory effect on the bacterial infection (adhesion)” value (E. coli CFT073; 0.05 mg/100 μL by gavage 8 times in 24 h, 5×10^7 cfu E. coli trans-urethral, n=6 mice) was −60%, the “inhibitory effect on the bacterial infection (adhesion)” value (E. coli CFT073; 3.3×10^6 cfu trans-urethral) was −61.3% and the “Observation of microbial culture” value (E. coli; 0.3125 mg/mL, 24 h) was “growth”. For the same compound, the “Observation of microbial culture” value (E. coli; 0.625 mg/mL, 24 h) was “growth”, the “Observation of microbial culture” value (E. coli; 1.25 mg/mL, 24 h) was “growth” and the “Observation of microbial culture” value (E. coli; 2.5 mg/mL, 24 h) was “growth”. For the same compound, the “Observation of microbial culture” value (E. coli; 5 mg/mL, 24 h) was “no growth”, the “MIC (minimal inhibitory concentration)” value (E. coli; [5]) was “MIC at 5 mg/mL” and the MIC (E. coli; 24 h, E. coli, 24 h exponential growth, pure substances and cranberry control, read-out: MIC (minimal inhibitory concentration)) was 5000 µg/mL (≈ 36.2 mM). It also gave an MIC (E. coli; [6]) of 5000 µg/mL (≈ 36.2 mM).
For O=C(O)CNC(=O)c1ccccc1O [Salicyluric acid, salicyluric acid], the cumulated amounts present in the urine ([2]; mice, FIG. 3B) was 707 µg, the “share of ingested SA found in the urines in this form” value ([2]; mice) was 32.0% and the “Observation of microbial culture” value (E. coli; 0.3125 mg/mL, 24 h) was “growth”. For the same compound, the “Observation of microbial culture” value (E. coli; 0.625 mg/mL, 24 h) was “growth”, the “Observation of microbial culture” value (E. coli; 1.25 mg/mL, 24 h) was “growth” and the “Observation of microbial culture” value (E. coli; 2.5 mg/mL, 24 h) was “growth *”. For the same compound, the “Observation of microbial culture” value (E. coli; 5 mg/mL, 24 h) was “no growth”, the “MIC (minimal inhibitory concentration)” value (E. coli; [5]) was “MIC at 5 mg/mL” and the “MIC (minimal inhibitory concentration)” value (E. coli; E. coli, 24 h exponential growth, pure substances and cranberry control, listed as 3) was 1250 µg/mL (≈ 6.4 mM). For the same compound, the MIC (E. coli; [6]) was 2500 µg/mL (≈ 12.8 mM).
For quercetin-4′-O-glucoside [Spiraeoside], the “% variation versus Negative Control (water), urine” value [3] was −9.10% and the “% variation versus Positive Control (Cranberry), urine” value [3] was −4.20%.
